Values of other authors, collected in publication PMC3935482 (Clinical cancer research : an official journal of the …, 2013).
Read-outs that look alike come from different tables or passages of the source.

Columns and labels:
[1] = oral rapamycin and IV temsirolimus

Compound	Half-life (given by weekly IV infusion) [h]	Cmax of rapamycin (5 mg oral rapamycin) [ng/mL]	Cmax of rapamycin (9 mg oral rapamycin) [ng/mL]	Cmax of rapamycin (60 mg oral rapamycin) [ng/mL]	Half-life [1] [h]	Patients with dermatologic toxicities such as rash (patients; patients receiving temsirolimus)	Grade 3 or 4 depression (patients; phase 2 study, 250 mg dose level) [%]
CO[C@H]1C[C@@H]2CC[C@@H](C)[C@@](O)(O2)C(=O)C(=O)N2CCCC[C@H]2C(=O)O[C@H]([C@H](C)C[C@@H]2CC[C@@H](OP(C)(C)=O)[C@H](OC)C2)CC(=O)[C@H](C)/C=C(\C)[C@@H](O)[C@@H](OC)C(=O)[C@H](C)C[C@H](C)/C=C/C=C/C=C/1C [deferolimus]	45 to 52						
CO[C@H]1C[C@@H]2CC[C@@H](C)[C@@](O)(O2)C(=O)C(=O)N2CCCC[C@H]2C(=O)O[C@H]([C@H](C)C[C@@H]2CC[C@@H](O)[C@H](OC)C2)CC(=O)[C@H](C)/C=C(\C)[C@@H](O)[C@@H](OC)C(=O)[C@H](C)C[C@H](C)/C=C/C=C/C=C/1C [rapamycin]		15.5	37.9	57.72	61 to 69		
CO[C@H]1C[C@@H]2CC[C@@H](C)[C@@](O)(O2)C(=O)C(=O)N2CCCC[C@H]2C(=O)O[C@H]([C@H](C)C[C@@H]2CC[C@@H](OC(=O)C(C)(CO)CO)[C@H](OC)C2)CC(=O)[C@H](C)/C=C(\C)[C@@H](O)[C@@H](OC)C(=O)[C@H](C)C[C@H](C)/C=C/C=C/C=C/1C [temsirolimus]					61 to 69	up to 50%	10
